# Data: paper PMC9851200, “Multiparameter phenotypic screening for endogenous TFEB and TFE3 translocation identifies novel chemical series modulating lysosome function” (Autophagy, 2022)
# Where two headings read alike, the source gives them in different places.
# Legend:
# Test in all cases: biochemical
# Type in all cases: binding
# [1] = target: T1, cellular kinases of SH-SY5Y cells (Homo sapiens, UniProt O15111); conditions: 2µM; SH-SY5Y cells; Labeling Site Lys2; DLKPENIVLQDVGGK; read-out: KiNativ in-cell binding, % Inhibition, CHUK/IKKa
# T1 construct: endogenous in cells; host or cells: SH-SY5Y
# Text: (§1) As KINOMEscan is an in vitro assay, and as different cell types have variable kinase expression profiles we sought to determine the kinase binding profile in our SH-SY5Y TFEB-relocalization cell model. […] Bound kinases were pulled down and analyzed by mass spectrometry to determine the in situ kinase binding profile for each compound.
# [2] = target: cellular kinases of SH-SY5Y cells (Homo sapiens, UniProt P04049); conditions: 2µM; SH-SY5Y cells; Labeling Site Lys2; DMKSNNIFLHEGLTVK; read-out: KiNativ in-cell binding, % Inhibition, RAF1
# cellular kinases of SH-SY5Y cells (Homo sapiens, UniProt P04049), sequence (P04049 whole entry): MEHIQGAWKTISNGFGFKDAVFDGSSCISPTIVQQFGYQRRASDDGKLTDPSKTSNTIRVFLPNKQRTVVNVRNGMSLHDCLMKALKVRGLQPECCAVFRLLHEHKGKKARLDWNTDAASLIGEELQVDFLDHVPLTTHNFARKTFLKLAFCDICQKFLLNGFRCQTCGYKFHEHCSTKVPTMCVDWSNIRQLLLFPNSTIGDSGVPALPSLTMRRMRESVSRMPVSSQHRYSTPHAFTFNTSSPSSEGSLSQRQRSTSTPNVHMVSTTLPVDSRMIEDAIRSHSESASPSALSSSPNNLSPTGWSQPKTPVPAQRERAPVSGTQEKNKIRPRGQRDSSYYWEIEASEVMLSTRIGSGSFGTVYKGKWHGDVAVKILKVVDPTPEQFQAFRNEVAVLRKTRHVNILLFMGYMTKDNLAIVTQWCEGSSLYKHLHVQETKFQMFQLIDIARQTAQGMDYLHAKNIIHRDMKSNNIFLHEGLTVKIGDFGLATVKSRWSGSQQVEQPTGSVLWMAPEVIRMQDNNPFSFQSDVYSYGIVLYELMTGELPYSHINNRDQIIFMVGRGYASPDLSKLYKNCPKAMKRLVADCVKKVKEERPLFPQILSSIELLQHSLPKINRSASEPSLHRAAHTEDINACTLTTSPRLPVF
# Text: as §1
# [3] = target: cellular kinases of SH-SY5Y cells (Homo sapiens, UniProt P15056); conditions: 2µM; SH-SY5Y cells; labeling site Lys2; peptide DLKSNNIFLHEDLTVK
# cellular kinases of SH-SY5Y cells (Homo sapiens, UniProt P15056), sequence (P15056 whole entry): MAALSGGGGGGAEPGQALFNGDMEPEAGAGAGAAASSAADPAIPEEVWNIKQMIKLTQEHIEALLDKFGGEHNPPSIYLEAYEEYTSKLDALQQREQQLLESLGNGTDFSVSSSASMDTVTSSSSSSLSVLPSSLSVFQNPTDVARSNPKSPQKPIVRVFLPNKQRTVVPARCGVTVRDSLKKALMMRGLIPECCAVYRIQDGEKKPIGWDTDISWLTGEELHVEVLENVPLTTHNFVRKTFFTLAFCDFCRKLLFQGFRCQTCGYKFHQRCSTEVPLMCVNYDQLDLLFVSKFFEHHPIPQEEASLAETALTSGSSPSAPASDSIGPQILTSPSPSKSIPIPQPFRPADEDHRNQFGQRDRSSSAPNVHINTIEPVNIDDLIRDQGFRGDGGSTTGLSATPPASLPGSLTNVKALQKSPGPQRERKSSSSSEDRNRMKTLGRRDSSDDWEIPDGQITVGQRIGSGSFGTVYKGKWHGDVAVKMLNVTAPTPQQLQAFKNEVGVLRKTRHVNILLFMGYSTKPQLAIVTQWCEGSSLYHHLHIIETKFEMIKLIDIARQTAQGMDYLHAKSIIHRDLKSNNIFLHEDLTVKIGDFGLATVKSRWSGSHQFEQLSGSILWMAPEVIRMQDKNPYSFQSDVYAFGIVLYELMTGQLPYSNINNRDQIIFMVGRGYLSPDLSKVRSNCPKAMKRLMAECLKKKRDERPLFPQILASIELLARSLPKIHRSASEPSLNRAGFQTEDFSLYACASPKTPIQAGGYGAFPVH
# Text: as §1
# [4] = target: cellular kinases of SH-SY5Y cells (Homo sapiens, UniProt P31749); conditions: 2µM; SH-SY5Y cells; Labeling Site ATP Loop; GTFGKVILVK; read-out: KiNativ in-cell binding, % Inhibition, AKT1
# Text: as §1
# [5] = target: cellular kinases of SH-SY5Y cells (Homo sapiens, UniProt P50750); conditions: 2µM, SH-SY5Y cells, read-out: KiNativ in-cell binding, % Inhibition, CDK9
# cellular kinases of SH-SY5Y cells (Homo sapiens, UniProt P50750), sequence (P50750 whole entry): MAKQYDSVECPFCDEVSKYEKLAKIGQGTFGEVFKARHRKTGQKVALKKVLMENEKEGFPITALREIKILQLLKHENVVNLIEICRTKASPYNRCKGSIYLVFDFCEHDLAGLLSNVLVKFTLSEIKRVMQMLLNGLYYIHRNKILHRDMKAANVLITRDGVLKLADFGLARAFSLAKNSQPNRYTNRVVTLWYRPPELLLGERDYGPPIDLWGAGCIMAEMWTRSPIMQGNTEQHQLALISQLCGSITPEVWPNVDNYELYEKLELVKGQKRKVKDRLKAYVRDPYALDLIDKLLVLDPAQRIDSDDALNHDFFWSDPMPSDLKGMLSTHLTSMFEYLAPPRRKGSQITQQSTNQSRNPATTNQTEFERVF
# Text: as §1
# [6] = target: cellular kinases of SH-SY5Y cells (Homo sapiens, UniProt P53350); conditions: 2µM, SH-SY5Y cells, read-out: KiNativ in-cell binding, % Inhibition, PLK1
# cellular kinases of SH-SY5Y cells (Homo sapiens, UniProt P53350), sequence (P53350 whole entry): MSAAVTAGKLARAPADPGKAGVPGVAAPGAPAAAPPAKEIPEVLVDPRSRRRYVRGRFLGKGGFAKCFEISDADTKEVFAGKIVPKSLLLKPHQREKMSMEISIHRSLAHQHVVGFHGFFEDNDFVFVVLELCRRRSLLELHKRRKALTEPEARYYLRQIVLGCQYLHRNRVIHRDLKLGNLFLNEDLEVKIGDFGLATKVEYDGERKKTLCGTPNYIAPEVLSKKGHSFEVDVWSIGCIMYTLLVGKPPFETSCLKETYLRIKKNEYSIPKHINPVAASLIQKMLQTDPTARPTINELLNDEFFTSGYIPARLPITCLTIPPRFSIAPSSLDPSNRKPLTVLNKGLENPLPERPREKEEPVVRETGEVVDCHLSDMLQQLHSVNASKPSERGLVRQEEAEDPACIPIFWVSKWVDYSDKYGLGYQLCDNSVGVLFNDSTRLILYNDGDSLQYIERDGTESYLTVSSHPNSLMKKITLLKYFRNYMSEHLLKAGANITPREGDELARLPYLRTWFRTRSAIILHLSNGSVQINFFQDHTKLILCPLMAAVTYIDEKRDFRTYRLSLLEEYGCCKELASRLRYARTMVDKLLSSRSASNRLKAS
# Text: as §1
# [7] = target: cellular kinases of SH-SY5Y cells (Homo sapiens, UniProt Q00534); conditions: 2µM; SH-SY5Y cells; labeling site Lys2; peptide DLKPQNILVTSSGQIK
# Text: as §1
# [8] = target: cellular kinases of SH-SY5Y cells (Homo sapiens, UniProt Q13535); conditions: 2µM; SH-SY5Y cells; Labeling Site ATP; FYIMMCKPK; read-out: KiNativ in-cell binding, % Inhibition, ATR
# Text: as §1
# [9] = target: cellular kinases of SH-SY5Y cells (Homo sapiens, UniProt Q16512); conditions: 2µM; SH-SY5Y cells; Labeling Site Lys1; VLLSEFRPSGELFAIKALK; read-out: KiNativ in-cell binding, % Inhibition, PKN1
# Text: as §1
# [10] = target: T2, cellular kinases of SH-SY5Y cells (Homo sapiens, UniProt Q7RTN6); conditions: 2µM; SH-SY5Y cells; Labeling Site Activation Loop; YSVKVLPWLSPEVLQQNLQGYDAK; read-out: KiNativ in-cell binding, % Inhibition, STRADA
# T2 construct: endogenous in cells; host or cells: SH-SY5Y
# Text: as §1
# [11] = target: T3, cellular kinases of SH-SY5Y cells (Homo sapiens, UniProt Q86UX6); conditions: 2µM; SH-SY5Y cells; Labeling Site Lys2; DVKPDNILLDER; read-out: KiNativ in-cell binding, % Inhibition, STK32C/YANK3
# T3 construct: endogenous in cells; host or cells: SH-SY5Y
# Text: as §1
# [12] = target: T4, cellular kinases of SH-SY5Y cells (Homo sapiens, UniProt Q8IZL9); conditions: 2µM; SH-SY5Y cells; Labeling Site Lys2; DLKPANLLISASGQLK; read-out: KiNativ in-cell binding, % Inhibition, CDK20
# T4 construct: endogenous in cells; host or cells: SH-SY5Y
# T4 sequence (Q8IZL9 whole entry): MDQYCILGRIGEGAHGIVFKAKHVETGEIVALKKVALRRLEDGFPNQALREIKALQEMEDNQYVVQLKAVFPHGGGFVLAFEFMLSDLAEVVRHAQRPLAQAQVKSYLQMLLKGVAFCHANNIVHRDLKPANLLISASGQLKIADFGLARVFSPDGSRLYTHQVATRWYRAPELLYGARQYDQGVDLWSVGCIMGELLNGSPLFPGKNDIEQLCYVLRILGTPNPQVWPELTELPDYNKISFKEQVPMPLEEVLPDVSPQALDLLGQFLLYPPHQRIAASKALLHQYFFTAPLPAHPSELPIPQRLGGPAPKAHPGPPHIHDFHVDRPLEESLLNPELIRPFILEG
# Text: as §1
# [13] = target: T5, cellular kinases of SH-SY5Y cells (Homo sapiens, UniProt Q8TCG2); conditions: 2µM; SH-SY5Y cells; labeling site ATP; peptide SEEPYGQLNPKWTK
# T5 construct: endogenous in cells; host or cells: SH-SY5Y
# Text: as §1
# [14] = target: cellular kinases of SH-SY5Y cells (Homo sapiens, UniProt Q96GD4); conditions: 2µM; SH-SY5Y cells; Labeling Site Lys1; SHFIVALKVLFK; read-out: KiNativ in-cell binding, % Inhibition, AURKB/AurB
# cellular kinases of SH-SY5Y cells (Homo sapiens, UniProt Q96GD4), sequence (Q96GD4 whole entry): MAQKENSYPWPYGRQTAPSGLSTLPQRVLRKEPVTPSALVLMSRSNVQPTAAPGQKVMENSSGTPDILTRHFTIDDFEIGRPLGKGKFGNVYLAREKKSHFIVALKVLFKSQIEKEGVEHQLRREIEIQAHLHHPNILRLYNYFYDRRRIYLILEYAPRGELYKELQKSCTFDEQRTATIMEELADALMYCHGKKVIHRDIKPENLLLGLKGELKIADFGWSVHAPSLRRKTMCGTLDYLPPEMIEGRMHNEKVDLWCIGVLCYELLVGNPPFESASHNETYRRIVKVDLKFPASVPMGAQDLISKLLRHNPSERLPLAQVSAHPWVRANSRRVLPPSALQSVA
# Text: as §1
# [15] = target: cellular kinases of SH-SY5Y cells (Homo sapiens, UniProt Q96RR4); conditions: 2µM, SH-SY5Y cells
# cellular kinases of SH-SY5Y cells (Homo sapiens, UniProt Q96RR4), sequence (Q96RR4 whole entry): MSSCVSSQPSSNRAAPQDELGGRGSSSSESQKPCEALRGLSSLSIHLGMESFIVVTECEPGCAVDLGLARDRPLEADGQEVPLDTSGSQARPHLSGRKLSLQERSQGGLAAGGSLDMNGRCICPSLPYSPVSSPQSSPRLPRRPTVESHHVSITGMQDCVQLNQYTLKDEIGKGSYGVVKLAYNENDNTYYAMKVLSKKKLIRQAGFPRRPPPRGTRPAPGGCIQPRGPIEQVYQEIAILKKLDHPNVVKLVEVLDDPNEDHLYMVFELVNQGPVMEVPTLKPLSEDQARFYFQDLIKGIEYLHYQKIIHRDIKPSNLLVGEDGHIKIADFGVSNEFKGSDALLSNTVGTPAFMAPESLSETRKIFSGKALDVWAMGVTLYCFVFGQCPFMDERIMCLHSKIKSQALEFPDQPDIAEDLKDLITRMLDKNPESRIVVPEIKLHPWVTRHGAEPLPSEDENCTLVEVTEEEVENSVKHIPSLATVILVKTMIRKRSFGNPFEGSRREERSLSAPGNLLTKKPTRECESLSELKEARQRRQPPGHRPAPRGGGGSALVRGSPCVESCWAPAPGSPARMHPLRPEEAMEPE
# Text: as §1
# [16] = target: T6, cellular kinases of SH-SY5Y cells (Homo sapiens, UniProt Q9Y2H1); conditions: 2µM, SH-SY5Y cells
# T6 construct: endogenous in cells; host or cells: SH-SY5Y
# T6 sequence (Q9Y2H1 whole entry): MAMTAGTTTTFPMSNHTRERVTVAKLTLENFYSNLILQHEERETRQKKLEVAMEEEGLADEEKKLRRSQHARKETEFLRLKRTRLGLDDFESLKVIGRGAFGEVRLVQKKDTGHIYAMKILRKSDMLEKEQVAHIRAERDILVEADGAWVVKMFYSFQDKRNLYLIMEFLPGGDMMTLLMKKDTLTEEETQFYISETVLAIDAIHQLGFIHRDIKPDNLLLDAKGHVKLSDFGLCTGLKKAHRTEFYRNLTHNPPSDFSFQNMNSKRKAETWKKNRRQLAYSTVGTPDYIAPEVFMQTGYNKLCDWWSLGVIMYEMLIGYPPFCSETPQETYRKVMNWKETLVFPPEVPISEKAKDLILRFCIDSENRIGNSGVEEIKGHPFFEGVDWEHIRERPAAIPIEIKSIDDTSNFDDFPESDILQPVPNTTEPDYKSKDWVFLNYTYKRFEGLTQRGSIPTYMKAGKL
# Text: as §1
# [17] = target: T7, cellular kinases of SH-SY5Y cells (Homo sapiens, UniProt Q9Y4K4); conditions: 2µM, SH-SY5Y cells, read-out: KiNativ in-cell binding, % Inhibition, MAP4K5
# T7 construct: endogenous in cells; host or cells: SH-SY5Y
# T7 sequence (Q9Y4K4 whole entry): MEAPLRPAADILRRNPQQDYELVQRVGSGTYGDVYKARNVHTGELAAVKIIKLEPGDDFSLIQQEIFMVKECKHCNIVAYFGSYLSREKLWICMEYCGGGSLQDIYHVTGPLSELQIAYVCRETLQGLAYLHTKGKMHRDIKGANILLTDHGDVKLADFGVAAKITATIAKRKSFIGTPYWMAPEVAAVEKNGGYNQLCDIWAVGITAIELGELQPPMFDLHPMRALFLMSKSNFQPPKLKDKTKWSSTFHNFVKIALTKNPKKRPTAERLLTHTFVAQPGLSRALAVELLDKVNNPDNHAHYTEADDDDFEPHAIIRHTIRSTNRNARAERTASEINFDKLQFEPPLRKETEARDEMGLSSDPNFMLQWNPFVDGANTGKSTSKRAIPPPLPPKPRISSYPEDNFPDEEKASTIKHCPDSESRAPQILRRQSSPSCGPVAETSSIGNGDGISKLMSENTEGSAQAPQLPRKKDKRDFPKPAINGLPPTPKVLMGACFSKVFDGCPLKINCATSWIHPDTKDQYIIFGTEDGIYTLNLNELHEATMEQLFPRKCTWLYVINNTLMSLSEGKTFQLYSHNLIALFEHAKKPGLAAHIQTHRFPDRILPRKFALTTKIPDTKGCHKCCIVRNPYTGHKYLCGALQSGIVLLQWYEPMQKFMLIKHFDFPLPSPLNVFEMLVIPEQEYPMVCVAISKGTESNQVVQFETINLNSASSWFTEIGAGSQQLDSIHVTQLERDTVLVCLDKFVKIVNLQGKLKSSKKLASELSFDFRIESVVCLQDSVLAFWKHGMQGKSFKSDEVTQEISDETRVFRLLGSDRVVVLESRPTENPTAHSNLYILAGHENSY
# Text: as §1
# [18] = target: T8, cellular kinases of SH-SY5Y cells (Homo sapiens, UniProt Q9Y572); conditions: 2µM; SH-SY5Y cells; Labeling Site Lys2; DLKPSNVLLDPELHVK; read-out: KiNativ in-cell binding, % Inhibition, RIPK3
# T8 construct: endogenous in cells; host or cells: SH-SY5Y
# Text: as §1
# [19] = target: T9, cellular kinases of SH-SY5Y cells (Homo sapiens, UniProt Q9Y6E0); conditions: 2µM; SH-SY5Y cells; Labeling Site Lys2; DIKAANVLLSEHGEVK; read-out: KiNativ in-cell binding, % Inhibition, STK24/MST3
# T9 construct: endogenous in cells; host or cells: SH-SY5Y
# Text: as §1
# [20] = target: cellular kinases of SH-SY5Y cells (Homo sapiens, UniProt Q9Y6M4); conditions: 2µM; SH-SY5Y cells; Labeling Site Lys2; DVKPENFLIGRPGNK; read-out: KiNativ in-cell binding, % Inhibition, CSNK1G3
# Text: as §1
compound,measurement,setting,value
Cc1cccc(-c2nc(Nc3ccc4ncsc4c3)c3ccccc3n2)n1 [NK140],inhibition at 2 µM,[1],-29.6%
same,inhibition at 2 µM,[2],32.5%
same,"KiNativ in-cell binding, BRAF, BRAF V600E",[3],-25.8
same,inhibition at 2 µM,[4],21.9%
same,inhibition at 2 µM,"[5]; Labeling Site ATP Loop, IGQGTFGEVFKAR",2.1%
same,inhibition at 2 µM,"[5]; Labeling Site Lys2, DMKAANVLITR",-6%
same,inhibition at 2 µM,"[6]; Labeling Site Lys1, CFEISDADTKEVFAGKIVPK",26%
same,inhibition at 2 µM,"[6]; Labeling Site Lys2, DLKLGNLFLNEDLEVK",9%
same,"KiNativ in-cell binding, CDK6",[7],-30.7
same,inhibition at 2 µM,[8],-42.5%
same,inhibition at 2 µM,[9],3%
same,inhibition at 2 µM,[10],48.6%
same,inhibition at 2 µM,[11],-34.7%
same,inhibition at 2 µM,[12],9.5%
same,"KiNativ in-cell binding, PI4K2B",[13],11.9
same,inhibition at 2 µM,[14],27.7%
same,inhibition at 2 µM,"[15]; Labeling Site Lys1, LAYNENDNTYYAMKVLSK, read-out: KiNativ in-cell binding, % Inhibition, CaMKK2",-64%
same,"KiNativ in-cell binding, CaMKK2","[15]; labeling site Lys2, peptide DIKPSNLLVGEDGHIK",-31.8
same,inhibition at 2 µM,"[16]; Labeling Site Lys1, DTGHIYAMKILR, read-out: KiNativ in-cell binding, % Inhibition, STK38L/NDR2",-47.2%
same,inhibition at 2 µM,"[16]; Labeling Site Lys2, DIKPDNLLLDAK, read-out: KiNativ in-cell binding, % Inhibition, NDR2",-39.9%
same,inhibition at 2 µM,"[17]; Labeling Site Lys1, NVHTGELAAVKIIK",27.4%
same,inhibition at 2 µM,"[17]; Labeling Site Lys2, DIKGANILLTDHGDVK",26.4%
same,inhibition at 2 µM,[18],26.1%
same,inhibition at 2 µM,[19],28.7%
same,inhibition at 2 µM,[20],-29%
